ChEMBL document CHEMBL1144444, “Predictive three-dimensional quantitative structure-activity relationship of cytochrome P450 1A2 inhibitors” (J Med Chem, 2005)

Target: T1, Cytochrome P450 1A2 (Homo sapiens, UniProt P05177)
T1 sequence (P05177 whole entry): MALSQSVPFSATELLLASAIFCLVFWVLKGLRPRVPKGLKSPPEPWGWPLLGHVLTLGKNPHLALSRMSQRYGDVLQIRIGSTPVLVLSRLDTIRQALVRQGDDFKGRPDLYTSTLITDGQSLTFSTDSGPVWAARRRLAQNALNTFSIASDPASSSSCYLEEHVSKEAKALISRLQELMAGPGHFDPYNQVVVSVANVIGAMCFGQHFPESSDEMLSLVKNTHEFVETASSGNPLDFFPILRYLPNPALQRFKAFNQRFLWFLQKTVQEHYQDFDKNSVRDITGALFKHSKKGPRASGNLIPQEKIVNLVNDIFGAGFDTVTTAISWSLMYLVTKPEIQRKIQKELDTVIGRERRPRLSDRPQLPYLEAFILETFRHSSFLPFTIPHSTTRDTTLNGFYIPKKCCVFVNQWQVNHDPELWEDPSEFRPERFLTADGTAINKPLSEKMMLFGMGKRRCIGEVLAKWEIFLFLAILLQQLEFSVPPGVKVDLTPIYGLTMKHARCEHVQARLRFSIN
Assay: Inhibitory concentration against recombinant human cytochrome P450 1A2

[1] = human, recombinant human CYP1A2

Compound	IC50 [µM]	IC50 [1] [µM]
Cc1ccc(CCN)cc1	14	–
COc1ccc(C=O)cc1	270	–
c1ccc2ccccc2c1	700	–
Cc1cc2ccccc2cn1	21	–
Clc1ccccc1-c1ccccc1	230	–
Fc1ccc2ccccc2c1	49	–
O=C1CCC(c2ccccc2)O1 (stereo unspecified)	2300	–
Cc1cc(C)c2ccccc2n1	2.4	–
CCC1CCC(=O)O1 (stereo unspecified)	9900	–
Cc1ccc2cc(C)ccc2c1	52	–
Cc1ccc2ccc(C)cc2c1	65	–
Clc1cccc2ccccc12	50	–
Cc1cnc2ccccc2c1	13	–
Cc1ccc2ccccc2c1	120	–
Clc1ccc(-c2ccccc2)cc1	49	–
O=C1Cc2ccccc2O1	260	–
Cc1ccc(C)c2ccccc12	3.6	–
Cc1ccc2c(C)cccc2c1	25	–

Compound	IC50 [µM]	IC50 [1] [µM]
c1ccc2c(c1)CCC2	550	–
c1ccc2c(c1)CCO2	1200	–
COC1=CC(=O)OC1	–	> 40000
CCc1ccc2ccccc2c1	19	–
Cc1cc(C)oc(=O)c1	4500	–
Cc1ccc2cccc(C)c2c1	7.5	–
O=C1CCCCCO1	–	> 40000
Cc1cccc2ccccc12	110	–
Cc1cccc2c(C)cccc12	42	–
CN1C(=O)CCC1c1cccnc1 (single isomer, unassigned) [COTININE]	5400	–
Oc1cccc2ccccc12 [1-NAPHTHOL]	3.2	–
O=c1[nH]c2ccccc2o1 [BENZOXAZOLINONE]	370	–
Oc1ccc2ccccc2c1 [BETANAPHTHOL]	17	–
c1ccc(-c2ccccc2)cc1 [BIPHENYL]	160	–
CCCCc1ccccc1 [BUTYLBENZYL]	3700	–
CCCCC1CCCCC1 [BUTYLCYCLOHEXANE]	55	–
Cc1ccc2ccccc2n1 [QUINALDINE]	40	–
CN1CCC[C@@H]1c1cccnc1 [R-NICOTINE]	4100	–
